{"source": "patent US9066860B2", "about": "“Oil-in-water emulsified composition” (SHISEIDO COMPANY, LTD., priority 2009, dated 2015)", "origin": "cited, not measured here", "data": [{"conditions": "background art statement", "values": [{"smiles": "CCCCC(CC)COC(=O)C=Cc1ccc(OC)cc1", "note": "(stereo not drawn) [2-ethylhexyl p-methoxycinnamate]", "Maximum (peak) absorption wavelength": "~310 nm"}, {"smiles": "CCCCC(CC)COC(=O)c1ccc(N(C)C)cc1", "note": "(stereo not drawn) [2-ethylhexyl-p-dimethylaminobenzoate]", "Maximum (peak) absorption wavelength": "~290 nm"}, {"smiles": "COc1ccc(C(=O)CC(=O)c2ccc(C(C)(C)C)cc2)cc1", "note": "[4-tert-butyl-4′-methoxydibenzoylmethane]", "Maximum (peak) absorption wavelength": "around 360 nm"}]}]}
